Data reported in US20060074108A1, “Matrix metalloprotease (MMP) inhibitors and their application in cosmetic and pharmaceutical composition” (Bioderm Research, priority 2004, published 2006).

Legend:
TRP-2 = assay: tyrosinase enzyme based model: inhibition of color formation from the action of TRP-2 on tyrosine, spectrophotometric rate kinetics; type: biochemical; details: TRP-2 model extended as predictive to MMP-2 and MMP-9 inhibition, wound healing application
Excerpt: It is based on the inhibition of a tyrosinase enzyme based model system, for example Canters et al., “Kinetic and paramagnetic NMR investigations of the inhibition of Streptomyces antibioticus tyosinase”, Journal of Molecular Catalysis, B: Enzymatics, vol. 8, 27-35 (2000). Tyrosinase is a copper-based monooxygenase enzyme that catalyzes the hydroxylation of monophenols (hydroxybenzenes) and the oxidation of ortho-diphenols to ortho-quinones. The active-site of tyrosinase is known to contain two copper ions (CuA and CuB). […] The regions around these copper-binding ligands are well conserved. Moreover, the distance between these two copper ions is […] [(van Amsterdam et al., Angewandte Chemie, 42: 62-64 (2003); Bubacco et al., J. Biol. Chem., 181-194 (2003)]. At least two proteins related to tyrosinase are known to exist in mammals, and include TRP-1, which is responsible for the conversion of 5,6-dihydroxyindole-2-carboxylic acid (DHICA) to indole-5,6-quinone-2-carboxylic acid (IQCA) or indole-5,6-quinone (IQ); and TRP-2, which is the melanogenic enzyme DOPAchrome tautomerase that catalyzes the conversion of DOPAchrome to DHICA. TRP-2 differs from tyrosinases and TRP-1 in that it binds two zinc ions instead of copper. Other proteins that belong to this family are plant polyphenol oxidases (PPO), which catalyze the oxidation of mono- and ortho-diphenols to ortho-diquinone. […] The colorless tyrosine is converted into yellow/orange colored ortho-diquinone of tyrosine, which is spectrophotometrically quantitated and its rate kinetics thus established.

MMP-13 = MMP-13 (Homo sapiens, UniProt P45452); details: in words; cited from earlier work
MMP-9 = MMP-9 (Homo sapiens, UniProt P14780); details: in words; cited from earlier work
Sequence of MMP-9 (P14780 94-707, species assumed): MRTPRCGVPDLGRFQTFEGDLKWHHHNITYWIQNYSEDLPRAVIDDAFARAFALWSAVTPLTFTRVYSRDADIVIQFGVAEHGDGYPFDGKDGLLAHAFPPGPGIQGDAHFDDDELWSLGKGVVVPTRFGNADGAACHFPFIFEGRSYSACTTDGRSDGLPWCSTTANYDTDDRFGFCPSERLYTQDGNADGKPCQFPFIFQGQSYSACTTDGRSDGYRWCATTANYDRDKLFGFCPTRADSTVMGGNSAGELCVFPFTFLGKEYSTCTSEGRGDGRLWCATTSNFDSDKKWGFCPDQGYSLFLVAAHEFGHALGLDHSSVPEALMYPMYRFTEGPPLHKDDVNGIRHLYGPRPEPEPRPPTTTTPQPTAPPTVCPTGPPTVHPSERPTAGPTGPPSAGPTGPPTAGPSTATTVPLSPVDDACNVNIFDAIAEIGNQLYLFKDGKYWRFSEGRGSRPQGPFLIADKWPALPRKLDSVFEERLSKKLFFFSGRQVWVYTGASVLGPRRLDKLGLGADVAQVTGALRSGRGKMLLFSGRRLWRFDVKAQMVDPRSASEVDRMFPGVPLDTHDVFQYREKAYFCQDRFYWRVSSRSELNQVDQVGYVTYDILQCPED

MMP-1 = biological target: T1, MMP-1 (Homo sapiens, UniProt P03956); details: in words; cited from earlier work
T1 sequence (P03956 100-469): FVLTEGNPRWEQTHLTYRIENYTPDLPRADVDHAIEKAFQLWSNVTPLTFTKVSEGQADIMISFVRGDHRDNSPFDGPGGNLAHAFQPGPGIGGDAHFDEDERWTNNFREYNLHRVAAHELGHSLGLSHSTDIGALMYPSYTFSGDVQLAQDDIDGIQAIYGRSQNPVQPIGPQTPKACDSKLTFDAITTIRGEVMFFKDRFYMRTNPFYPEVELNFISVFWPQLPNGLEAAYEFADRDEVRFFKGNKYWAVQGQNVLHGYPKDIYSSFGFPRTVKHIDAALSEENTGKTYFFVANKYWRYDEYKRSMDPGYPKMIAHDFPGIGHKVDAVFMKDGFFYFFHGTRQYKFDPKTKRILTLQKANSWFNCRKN

SMILES	order of efficacy (oxime derivatives) (TRP-2)	order of efficacy (acetophenones) (TRP-2)	further results
CC(=NO)c1ccc(O)cc1O [2,4-Dihydroxyacetophenone Oxime]	2,5-Dihydroxyacetophenone Oxime>2,4-Dihydroxyacetophenone Oxime>2-Hydroxy-4-methoxyaceophenone Oxime		
CC(=O)c1ccc(O)cc1O [2,4-Dihydroxyacetophenone]		2,5-Dihydroxyacetophenone>2,4-Dihydroxyacetophenone>2-Hydroxy-4-methoxyaceophenone	
CC(=NO)c1cc(O)ccc1O [2,5-Dihydroxyacetophenone Oxime]	2,6-Dihydroxyacetophenone Oxime>2,5-Dihydroxyacetophenone Oxime>2,4-Dihydroxyacetophenone Oxime		
CC(=O)c1cc(O)ccc1O [2,5-Dihydroxyacetophenone]		2,6-Dihydroxyacetophenone>2,5-Dihydroxyacetophenone>2,4-Dihydroxyacetophenone	
CC(=NO)c1c(O)cccc1O [2,6-Dihydroxyacetophenone Oxime]	2,6-Dihydroxyacetophenone Oxime>2,5-Dihydroxyacetophenone Oxime		
CC(=O)c1c(O)cccc1O [2,6-Dihydroxyacetophenone]		2,6-Dihydroxyacetophenone>2,5-Dihydroxyacetophenone	
COc1ccc(C(C)=NO)c(O)c1 [2-Hydroxy-4-methoxyaceophenone Oxime]	2,4-Dihydroxyacetophenone Oxime>2-Hydroxy-4-methoxyaceophenone Oxime		
COc1ccc(C(C)=O)c(O)c1 [2-Hydroxy-4-methoxyaceophenone]		2,4-Dihydroxyacetophenone>2-Hydroxy-4-methoxyaceophenone >>>Arbutin	
OC[C@H]1O[C@@H](Oc2ccc(O)cc2)[C@H](O)[C@@H](O)[C@@H]1O [Arbutin, reference compound]		2-Hydroxy-4-methoxyaceophenone >>>Arbutin	
O=C(NCCCCN1CCOCC1)c1cc2ccccc2o1 [CL-82198]			inhibition of MMP-13 (MMP-13): weak inhibition; activity against MMP-9 (MMP-9): complete lack of activity; activity against MMP-1 (MMP-1): complete lack of activity
Cc1cc(C)c(N(Cc2ccccc2)S(=O)(=O)c2ccc(OCCNC(=O)c3cc4ccccc4o3)cc2)c(C(=O)NO)c1 [WAY-170523]			inhibition of MMP-13 (MMP-13): potent
